Patent US20080242663A1, “NOVEL PYRIMIDINE DERIVATIVES 698” (ASTRAZENECA AB, priority 2007, published 2008)

The molecules below were run against T1, recombinant EphB4 (Homo sapiens, UniProt P54760) (assay: In vitro EphB4 enzyme assay (Alphascreen)).
T1 construct: amino acids 563-987; Swiss-Prot Acc; No. P54760; purchased ProQinase GmbH 0178-0000-3
T1 sequence (P54760 563-987): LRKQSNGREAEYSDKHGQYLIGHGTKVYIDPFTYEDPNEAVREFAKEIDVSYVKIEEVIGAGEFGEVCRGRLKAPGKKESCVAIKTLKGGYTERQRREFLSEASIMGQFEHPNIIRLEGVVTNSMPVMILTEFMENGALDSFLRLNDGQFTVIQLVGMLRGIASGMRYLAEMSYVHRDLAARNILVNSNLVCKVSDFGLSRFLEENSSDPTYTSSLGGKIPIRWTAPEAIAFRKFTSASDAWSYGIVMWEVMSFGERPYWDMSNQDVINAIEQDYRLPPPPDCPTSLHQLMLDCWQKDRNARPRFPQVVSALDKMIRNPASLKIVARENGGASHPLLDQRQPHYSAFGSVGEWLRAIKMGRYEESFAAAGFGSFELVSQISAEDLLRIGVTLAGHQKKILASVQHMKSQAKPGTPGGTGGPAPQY
Format: biochemical
Summary of the method: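 Recombinant EphB4 phosphorylated biotin-poly-GAT with Mg-ATP for 1 hr at room temperature; EDTA stop, then Alphascreen donor/acceptor (anti-phosphotyrosine) beads for 20 hrs in the dark. After minimum subtraction, signal plotted against compound concentration to derive IC50.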

**Q.** Which IC50 does the source give for `Cc1ccc(CO)cc1N(C)c1ccnc(Nc2cc(C(=O)N3CCCC3)cc(N3CCOCC3)c2)n1` [Example 18.2] here?
**A.** Its IC50 is 62.3 nM.

**Q.** Which IC50 does the source give for `Cc1ccc(CO)cc1N(C)c1ccnc(Nc2cc(C(=O)NCC(C)C)cc(N3CCOCC3)c2)n1` [Example 18.3, 3-[[4-[[5-(hydroxymethyl)-2-methyl-phenyl]-methyl-amino]pyrimidin-2-yl]amino]-N-(2-methylpropyl)-5-morpholin-4-yl-benzamide] here?
**A.** The IC50 was 246 nM.

**Q.** `CCN(C)C(=O)c1cc(Nc2nccc(N(C)c3cc(CO)ccc3C)n2)cc(N2CCOCC2)c1` [Example 18.4, N-ethyl-3-[[4-[[5-(hydroxymethyl)-2-methyl-phenyl]-methyl-amino]pyrimidin-2-yl]amino]-N-methyl-5-morpholin-4-yl-benzamide] was tested. Which IC50 did it give?
**A.** The IC50 was 75.3 nM.

**Q.** Which IC50 does the source give for `Cc1ccc(CO)cc1N(C)c1ccnc(Nc2cc(C(=O)NCC3CC3)cc(N3CCOCC3)c2)n1` [Example 18.5, N-(cyclopropylmethyl)-3-[[4-[[5-(hydroxymethyl)-2-methyl-phenyl]-methyl-amino]pyrimidin-2-yl]amino]-5-morpholin-4-yl-benzamide] here?
**A.** The IC50 was 477 nM.

**Q.** `Cc1ccc(CO)cc1N(C)c1ccnc(Nc2cc(C(=O)N(C)C(C)C)cc(N3CCOCC3)c2)n1` [Example 18.6, 3-[[4-[[5-(hydroxymethyl)-2-methyl-phenyl]-methyl-amino]pyrimidin-2-yl]amino]-N-methyl-5-morpholin-4-yl-N-propan-2-yl-benzamide] was tested. Which IC50 did it give?
**A.** The IC50 was 342 nM.

**Q.** Which IC50 does the source give for `COCCN(C)C(=O)c1cc(Nc2nccc(N(C)c3cc(CO)ccc3C)n2)cc(N2CCOCC2)c1` [Example 18.7, 3-[[4-[[5-(hydroxymethyl)-2-methyl-phenyl]-methyl-amino]pyrimidin-2-yl]amino]-N-(2-methoxyethyl)-N-methyl-5-morpholin-4-yl-benzamide] here?
**A.** Its IC50 is 118 nM.

**Q.** Which IC50 does the source give for `CN(C)C(=O)c1cc(Nc2nccc(N(C)c3cccc(Cl)c3)n2)cc(N2CCOCC2)c1` [Example 19.1, 3-[[4-[(3-chlorophenyl)-methyl-amino]pyrimidin-2-yl]amino]-N,N-dimethyl-5-morpholin-4-yl-benzamide] here?
**A.** Its IC50 is 419 nM.

**Q.** For `CN(CCO)C(=O)c1cc(Nc2nccc(N(C)c3cccc(Cl)c3)n2)cc(N2CCOCC2)c1` [Example 19.2, 3-[[4-[(3-chlorophenyl)-methyl-amino]pyrimidin-2-yl]amino]-N-(2-hydroxyethyl)-N-methyl-5-morphohn-4-yl-benzamide], which IC50 is on record?
**A.** The IC50 was 395 nM.

**Q.** `COCCN(C)C(=O)c1cc(Nc2nccc(N(C)c3cccc(Cl)c3)n2)cc(N2CCOCC2)c1` [Example 19.3, 3-[[4-[(3-chlorophenyl)-methyl-amino]pyrimidin-2-yl]amino]-N-(2-methoxyethyl)-N-methyl-5-morpholin-4-yl-benzamide] was tested. Which IC50 did it give?
**A.** The IC50 was 571 nM.

**Q.** For `CN(CCCO)C(=O)c1cc(Nc2nccc(N(C)c3cccc(Cl)c3)n2)cc(N2CCOCC2)c1` [Example 19.4, 3-[[4-[(3-chlorophenyl)-methyl-amino]pyrimidin-2-yl]amino]-N-(3-hydroxypropyl)-N-methyl-5-morpholin-4-yl-benzamide], which IC50 is on record?
**A.** The IC50 was 295 nM.

**Q.** With `C[C@H](O)CN(C)C(=O)c1cc(Nc2nccc(N(C)c3cccc(Cl)c3)n2)cc(N2CCOCC2)c1` [Example 19.5, 3-[[4-[(3-chlorophenyl)-methyl-amino]pyrimidin-2-yl]amino]-N-[(2S)-2-hydroxypropyl]-N-methyl-5-morpholin-4-yl-benzamide] as the molecule, how does the IC50 read?
**A.** Its IC50 is 181 nM.

**Q.** `C[C@@H](CO)N(C)C(=O)c1cc(Nc2nccc(N(C)c3cccc(Cl)c3)n2)cc(N2CCOCC2)c1` [Example 19.6] was tested. Which IC50 did it give?
**A.** Its IC50 is 339 nM.

**Q.** With `CCN(C)C(=O)c1cc(Nc2nccc(N(C)c3cccc(Cl)c3)n2)cc(N2CCOCC2)c1` [Example 19.7, 3-[[4-[(3-chlorophenyl)-methyl-amino]pyrimidin-2-yl]amino]-N-ethyl-N-methyl-5-morpholin-4-yl-benzamide] as the molecule, how does the IC50 read?
**A.** Its IC50 is 648 nM.

**Q.** For `CC(C)N(C)C(=O)c1cc(Nc2nccc(N(C)c3cccc(Cl)c3)n2)cc(N2CCOCC2)c1` [Example 19.8], which IC50 is on record?
**A.** The IC50 was 1450 nM.

**Q.** Which IC50 does the source give for `CN(c1cccc(Cl)c1)c1ccnc(Nc2cc(C(=O)N3CCCC3)cc(N3CCOCC3)c2)n1` [Example 19.9] here?
**A.** The IC50 was 754 nM.

**Q.** For `CN(c1cccc(Cl)c1)c1ccnc(Nc2cc(C(=O)N3CCOCC3)cc(N3CCOCC3)c2)n1` [Example 19.10, [3-[[4-[(3-chlorophenyl)-methyl-amino]pyrimidin-2-yl]amino]-5-morpholin-4-yl-phenyl]-morpholin-4-yl-methanone], which IC50 is on record?
**A.** Its IC50 is 656 nM.

**Q.** For `CN1CCN(C(=O)c2cc(Nc3nccc(N(C)c4cccc(Cl)c4)n3)cc(N3CCOCC3)c2)CC1` [Example 19.11, [3-[[4-[(3-chlorophenyl)-methyl-amino]pyrimidin-2-yl]amino]-5-morpholin-4-yl-phenyl]-(4-methylpiperazin-1-yl)methanone], which IC50 is on record?
**A.** The IC50 was 207 nM.

**Q.** Which IC50 does the source give for `CN(c1cccc(Cl)c1)c1ccnc(Nc2cc(C(=O)N3CCC(O)CC3)cc(N3CCOCC3)c2)n1` [Example 19.12, [3-[[4-[(3-chlorophenyl)-methyl-amino]pyrimidin-2-yl]amino]-5-morpholin-4-yl-phenyl]-(4-hydroxy-1-piperidyl) methanone] here?
**A.** The IC50 was 234 nM.

**Q.** With `CN(c1cccc(Cl)c1)c1ccnc(Nc2cc(C(=O)NC3CCC3)cc(N3CCOCC3)c2)n1` [Example 19.13, 3-[[4-[(3-chlorophenyl)-methyl-amino]pyrimidin-2-yl]amino]-N-cyclobutyl-5-morpholin-4-yl-benzamide] as the molecule, how does the IC50 read?
**A.** The IC50 was 2080 nM.

**Q.** With `CC(C)NC(=O)c1cc(Nc2nccc(N(C)c3cccc(Cl)c3)n2)cc(N2CCOCC2)c1` [Example 19.14, 3-[[4-[(3-chlorophenyl)-methyl-amino]pyrimidin-2-yl]amino]-5-morpholin-4-yl-N-propan-2-yl-benzamide] as the molecule, how does the IC50 read?
**A.** The IC50 was 1180 nM.

**Q.** For `COCC(C)NC(=O)c1cc(Nc2nccc(N(C)c3cccc(Cl)c3)n2)cc(N2CCOCC2)c1` (stereo not drawn) [Example 19.15, 3-[[4-[(3-chlorophenyl)-methyl-amino]pyrimidin-2-yl]amino]-N-(1-methoxypropan-2-yl)-5-morpholin-4-yl-benzamide], which IC50 is on record?
**A.** The IC50 was 1100 nM.

**Q.** How did the IC50 turn out when `CN(c1cccc(Cl)c1)c1ccnc(Nc2cc(C(=O)NCC3CC3)cc(N3CCOCC3)c2)n1` [Example 19.16, 3-[[4-[(3-chlorophenyl)-methyl-amino]pyrimidin-2-yl]amino]-N-(cyclopropylmethyl)-5-morpholin-4-yl-benzamide] was run?
**A.** The IC50 was 1970 nM.

**Q.** For `CC(C)CNC(=O)c1cc(Nc2nccc(N(C)c3cccc(Cl)c3)n2)cc(N2CCOCC2)c1` [Example 19.17, 3-[[4-[(3-chlorophenyl)-methyl-amino]pyrimidin-2-yl]amino]-N-(2-methylpropyl)-5-morphohn-4-yl-benzamide], which IC50 is on record?
**A.** Its IC50 is 2830 nM.

**Q.** Which IC50 does the source give for `COCCNC(=O)c1cc(Nc2nccc(N(C)c3cccc(Cl)c3)n2)cc(N2CCOCC2)c1` [Example 19.18, 3-[[4-[(3-chlorophenyl)-methyl-amino]pyrimidin-2-yl]amino]-N-(2-methoxyethyl)-5-morpholin-4-yl-benzamide] here?
**A.** Its IC50 is 614 nM.

**Q.** For `CN(c1cccc(Cl)c1)c1ccnc(Nc2cc(C(=O)NC(C)(C)CO)cc(N3CCOCC3)c2)n1` [Example 19.19, 3-[[4-[(3-chlorophenyl)-methyl-amino]pyrimidin-2-yl]amino]-N-(1-hydroxy-2-methyl-propan-2-yl)-5-morpholin-4-yl-benzamide], which IC50 is on record?
**A.** Its IC50 is 1050 nM.

**Q.** `CN(c1cccc(Cl)c1)c1ccnc(Nc2cc(C(=O)NC(C)(C)C)cc(N3CCOCC3)c2)n1` [Example 19.20, 3-[[4-[(3-chlorophenyl)-methyl-amino]pyrimidin-2-yl]amino]-5-morpholin-4-yl-N-tert-butyl-benzamide] was tested. Which IC50 did it give?
**A.** The IC50 was 3090 nM.

**Q.** How did the IC50 turn out when `C[C@@H](CO)NC(=O)c1cc(Nc2nccc(N(C)c3cccc(Cl)c3)n2)cc(N2CCOCC2)c1` [Example 19.21, 3-[[4-[(3-chlorophenyl)-methyl-amino]pyrimidin-2-yl]amino]-N-[(2S)-1-hydroxypropan-2-yl]-5-morpholin-4-yl-benzamide] was run?
**A.** The IC50 was 527 nM.

**Q.** How did the IC50 turn out when `CN(c1cccc(Cl)c1)c1ccnc(Nc2cc(C(=O)N3CC[C@@H](O)C3)cc(N3CCOCC3)c2)n1` [Example 19.22, [3-[[4-[(3-chlorophenyl)-methyl-amino]pyrimidin-2-yl]amino]-5-morpholin-4-yl-phenyl]-[(3R)-3-hydroxypyrrolidin-1-yl]methanone] was run?
**A.** The IC50 was 119 nM.

**Q.** Which IC50 does the source give for `C[C@H](CO)NC(=O)c1cc(Nc2nccc(N(C)c3cccc(Cl)c3)n2)cc(N2CCOCC2)c1` [Example 19.23, 3-[[4-[(3-chlorophenyl)-methyl-amino]pyrimidin-2-yl]amino]-N-[(2R)-1-hydroxypropan-2-yl]-5-morpholin-4-yl-benzamide] here?
**A.** Its IC50 is 1310 nM.

**Q.** `CN(c1cccc(Cl)c1)c1ccnc(Nc2cc(C(=O)NC3CCOCC3)cc(N3CCOCC3)c2)n1` [Example 19.24, 3-[[4-[(3-chlorophenyl)-methylamino]pyrimi-din-2-yl]amino]-5-morpholin-4-yl-N-(oxan-4-yl)benzamide] was tested. Which IC50 did it give?
**A.** The IC50 was 1000 nM.

**Q.** `CCNC(=O)c1cc(Nc2nccc(N(C)c3cccc(Cl)c3)n2)cc(N2CCOCC2)c1` [Example 19.25, 3-[[4-[(3-chlorophenyl)-methylamino]pyrimidin-2-yl]amino]-N-ethyl-5-morpholin-4-ylbenzamide] was tested. Which IC50 did it give?
**A.** The IC50 was 875 nM.

**Q.** With `COc1cccc(N(c2ccnc(Nc3cc(N4CCOCC4)cc(N4CCOCC4)c3)n2)C(C)C)c1` [Example 20, N2-(3,5-dimorpholinophenyl)-N4-isopropyl-N4-(3-methoxyphenyl)pyrimidine-2,4-diamine] as the molecule, how does the IC50 read?
**A.** The IC50 was 912 nM.

**Q.** How did the IC50 turn out when `Cc1ccc(CO)cc1N(CCO)c1ccnc(Nc2cc(N3CCOCC3)cc(N3CCOCC3)c2)n1` [Example 21.3] was run?
**A.** The IC50 was 25 nM.
